Assay results as given in patent US9766241B2, “PGC-1beta-protein-function regulator, mitochondria-function regulator, anti-obesity agent, and screening method therefor” (priority 2012, dated 2017).
Where a SMILES comes first, the peptide text is derived from it. The star is where a group is joined. Cbz = O=C(OCc1ccccc1)*

Legend:
[1] = target: T1, binding between synoviolin and PGC-1β (Homo sapiens, UniProt Q86TM6, E545G); experiment: in vitro binding assay between synoviolin and PGC-1β (Western blot)
T1 construct: GST fusion synoviolin which lack transmembrane domain (GST syno ΔTM); made in house
T1 sequence (Q86TM6 236-617 E545G): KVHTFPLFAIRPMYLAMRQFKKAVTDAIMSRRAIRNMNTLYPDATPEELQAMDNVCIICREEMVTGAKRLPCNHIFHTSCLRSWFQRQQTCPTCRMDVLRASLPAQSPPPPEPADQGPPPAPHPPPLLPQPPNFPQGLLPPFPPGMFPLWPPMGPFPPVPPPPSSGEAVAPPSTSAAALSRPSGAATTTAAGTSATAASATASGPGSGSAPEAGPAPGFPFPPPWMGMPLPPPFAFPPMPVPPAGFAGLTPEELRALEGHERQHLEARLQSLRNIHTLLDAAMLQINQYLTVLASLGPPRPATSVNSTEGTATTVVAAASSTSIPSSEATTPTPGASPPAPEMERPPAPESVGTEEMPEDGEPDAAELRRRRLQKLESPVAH
Description: In order to investigate an influence on PGC-1β functions by inhibitor of E3 ubiquitin ligase activity of synoviolin, an effect on inhibition of binding between the synoviolin and the PGC-1β was firstly investigated. Specifically, in a usual binding assay using MBP-PGC-1β-His protein and GST-Syno ΔTM protein, LS-102 (PARMACOPIEA, Corporation) was added and these proteins were incubated for 12 hours. Then, these proteins were separated by SDS-PAGE of 12% gel concentration, and Western blot was performed. Anti-GST antibody diluted 2500 folds were used as a primary antibody, and anti-rat HRP diluted 10000 folds was used as a secondary antibody.
In order to obtain a substance which inhibits the binding between synoviolin and PGC-1β, with respect to the substances shown in the following table 2 included in screening library relating to E3 ubiquitin ligase, in order to examine influence on the binding between synoviolin and PGC-1β, in vitro binding assays similar to the examples 3 to 6 were performed. The results were shown in FIGS. 11-1, 11-2, 11-3, and 11-4. In this example, 2 μg of PGC-1β (see FIG. 4) and 2 μg of GST-Syno ΔTM (see FIG. 6) were used.
The binding assay was performed using the following assay system. 2 μg of MBP-PGC-1β His (1-367aa) and 2 μg of the modified synoviolin fused to GST were bound for 12 hours in a buffer (20 mM Tris-HCl pH 8.0, 100 mM NaCl, 1 mM EDTA. 0.1% NP-40, 5% glucose 1, and protease inhibitors) to detect PGC-1β using anti-PGC-1β antibody.

[2] = tested on: PPRE ×3-TK-luc reporter (PGC-1β coactivator function); experiment: Luciferase assay with PPRE ×3-TK-luc reporter in HEK-293 cells; format: cell-based
Description: Specifically, control siRNA or Syno siRNA was temporarily transfected in HEK-293 cells. Reporter plasmid containing PPAR binding sites (PPRE ×3-TK-luc), CMV-β-gal expression construct, or siRNA was temporarily transfected in HEK-293 cells. After 16 hours, DMSO or Wy-14643 was treated for 6 hours, and then Luciferase assay was performed (FIG. 9B).
After 16 hours from the transfection, cells were treated with solvent (DMSO) or Wy-14643 for 6 hours and the Luciferase assay was performed.
The luciferase assay was performed similar to the example 9 except for using 5 μM of LS-102, 0.1 μM and 0.5 μM of 348, 0.1 μM and 5 μM of 349, and 5 μM of 351 and 355 instead of transfecting the Syno siRNA in the example 9. The same volume of DMSO, which is a solvent of each compound, was added as a control.

[3] = target: T2, synoviolin protein (Homo sapiens, UniProt Q86TM6); settings: disclosed in JP 2008-74753 A; cited from earlier work
T2 construct: MBP-Syno ΔTM-His means synoviolin in which transmembrane domain has been deleted; His tag (C)
T2 sequence (Q86TM6 246-617 limits assumed): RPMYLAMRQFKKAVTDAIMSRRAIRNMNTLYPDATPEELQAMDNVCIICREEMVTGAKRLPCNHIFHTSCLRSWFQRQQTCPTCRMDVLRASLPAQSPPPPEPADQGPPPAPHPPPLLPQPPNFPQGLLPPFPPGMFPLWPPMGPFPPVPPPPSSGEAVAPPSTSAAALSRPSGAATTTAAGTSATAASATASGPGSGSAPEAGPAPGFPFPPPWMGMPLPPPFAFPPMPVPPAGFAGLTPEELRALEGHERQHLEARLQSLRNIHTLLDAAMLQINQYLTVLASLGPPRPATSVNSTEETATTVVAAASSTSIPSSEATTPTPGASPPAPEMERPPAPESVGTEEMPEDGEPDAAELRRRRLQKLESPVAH

[4] = tested on: PGC-1β; experiment: PGC-1β protein and mRNA level in treated HEK 293 cells; format: cell-based
Description: Firstly, synoviolin knock down was performed by siRNA in HEK 293 cells. Synoviolin siRNA was prepared in accordance with already reported article (see, Yamasaki, S., et al. (2007). Cytoplasmic destruction of p53 by the endoplasmic reticulum-resident ubiquitin ligase ‘Synoviolin’. EMBO J 26, 113-122.). Transfection of siRNA into cells was performed in accordance with a protocol with Lipofectamine 2000 (Invitrogen, Corporation).
When a protein level of the PGC-1β was investigated as a confirmation, the protein level of the PGC-1β was doubled in LS-102 treated cells. On the other hand, the expression of PGC-1β mRNA was not changed by the LS-102 treatment.

[5] = tested on: mitochondria in adipose tissue cells; experiment: mitochondria in adipose tissue of mice given LS-102 (electron micrographs); format: in vivo, C57BL/6J mice; settings: 50 mg/kg body weight per day intraperitoneally, fifty seventh day, vs DMSO, FIG. 18
Description: 50 mg/kg body weight of LS-102 per day or solvent (DMSO) as a control was administered intraperitoneally to 7 to 8-week-old C57BL/6J mice to observe adipose tissue slices of the mice of fifty seventh day after the administration using a microscope. […] Magnifications of the electron microscope were 2,500 folds and 10,000 folds and the white bars indicate scale bars (2 μm in the 2,500 folds and 500 nm in the 10,000 folds).

[6] = tested on: mitochondria in HEK-293 cells; experiment: electron microscope observation of mitochondria in treated cells; format: cell-based; settings: 1 μM, observed after 72 hours, FIG. 13
Description: The observation of mitochondria was performed similar to the example 9 except for observing after 72 hours from adding 1 μM of 348, 349, 351 and 355 to cells instead of transfecting the Syno siRNA in the example 9.

[7] = target: T3, PGC-1β ubiquitination by synoviolin (SYVN1) (Homo sapiens, UniProt Q86TM6); experiment: in vitro ubiquitination of PGC-1β by synoviolin (Western blot); format: biochemical; settings: for inhibiting activity of the PGC-1β ubiquitination, concentration dependency: 1 μM and 10 μM, FIG. 21; for polyubiquitination of PGC-1β: compared to control group (DMSO), FIG. 11-4
T3 construct: MBP-Syno ΔTM-His means synoviolin in which transmembrane domain has been deleted; His tag (C)
T3 sequence (Q86TM6 246-617 limits assumed): as above
Description: The ubiquitin assay was performed using the following assay system. E1-His 125 ng, UbcH5C 150 ng, MBP-SYVN1 ΔTM-His 150 ng, GST-PGC-1β (1-367 aa; GST-P5), and HA-ubiquitin (HA-Ub) 750 ng were reacted at 30° C. for 2 hours in a buffer (50 mM Tris-HCL pH 7.5, 5 mM MgCl2, 0.6 mM DTT, and 2 mM ATP) to be ubiquitinated. Thereafter, the ubiquitinated proteins were bound to Glutathione Sepharose in GST washing buffer (50 mM Tris-HCl pH 7.5, 0.5 M NaCl, 1% Triton X, 1 mM EDTA, 1 mM DTT, and protease inhibitors). After washing with the GST washing buffer, ubiquitination of PGC-1β was detected by Western blotting using anti-PGC-1β antibody and anti-HA antibody.
In order to examine the concentration dependency of the inhibiting activity of test substances 348 and 349 in PGC-1β ubiquitination by synoviolin (SYVN1), the in vitro binding assay was performed in the same manner as described in Example 11.

[8] = tested on: PGC-1β; experiment: PGC-1β protein and mRNA level in skin fibroblasts from syno cKO mice (Western blot, real-time PCR); format: cell-based, mouse
Description: Skin fibroblasts from syno CKO mice were cultivated in DMEM medium and treated by tamoxifen (Tam) or solvent (DMSO) for 48 hours. Cell extracts or total RNA were collected, each was used for western blot and real-time PCR, respectively.
Further, in order to investigate whether […] was involved in synoviolin-mediated degradation of PGC-1β in cells, after the treatment by tamoxifen or solvent in the above experiment, 10 μM of MG-132, which is a proteasome inhibitor, was added and treated for two hours, and then, similar experiment was performed.

[9] = 2 μg PGC-1β and 2 μg GST-Syno ΔTM, FIGS. 11-1 to 11-4

CC1=CC(=O)c2ccccc2C1=O [compound 351]
binding between synoviolin and PGC-1β [1, 9]: enhances the binding | luciferase activity ([2]; compounds instead of Syno siRNA (351: 5 μM), DMSO control, FIG. 12): lowered

O=c1c(O)c(-c2ccc(O)c(O)c2)oc2cc(O)cc(O)c12 [quercetin, 2-(3,4-dihydroxyphenyl)-3,5,7-trihydroxy-4H-1-benzopyrano-4-on, reference compound]
self-ubiquitination of synoviolin protein [3]: inhibit self-ubiquitination of synoviolin protein | binding between synoviolin and PGC-1β [1, 9]: inhibition of the binding

CCNCCN(CC)c1nc(Nc2ccc3ncoc3c2)nc(N[C@@H](C)C2CCCCC2)n1 [LS-102]
protein level of the PGC-1β ([4]; LS-102 treated cells): doubled | expression of PGC-1β mRNA ([4]; LS-102 treatment): not changed | number and volume density of mitochondria in the adipose tissue cells [5]: increases in number and volume density of mitochondria | binding between synoviolin and PGC-1β ([1]; MBP-PGC-1β-His and GST-Syno ΔTM, incubated 12 hours, FIG. 10): has an effect on inhibition of binding

O=C1C=CC(=O)c2c(Cl)ccc(O)c21 [compound 358]
binding between synoviolin and PGC-1β [1, 9]: inhibition of the binding

O=C1C=CC(=O)c2c(O)ccc(O)c21 [compound 348]
number and size of mitochondria [6]: proliferation (increase in the number) of mitochondria or increase in size of mitochondria has been observed | inhibiting activity of the PGC-1β ubiquitination, concentration dependency [7]: in 10 μM is higher than that in 1 μM | polyubiquitination of PGC-1β [7]: suppressed | binding between synoviolin and PGC-1β [1, 9]: inhibition of the binding

CC/C(=C(\c1ccccc1)c1ccc(OCCN(C)C)cc1)c1ccccc1 [Tam]
protein level of PGC-1β ([8]; Tam treatment 48 hours (induces synoviolin knockout) vs DMSO, skin fibroblasts of syno cKO mice): 1.4 folds | mRNA level of PGC-1β ([8]; Tam treatment 48 hours, skin fibroblasts of syno cKO mice): no change

Cc1cccc(Nc2cc(Cl)nc(SCC(=O)O)n2)c1C [Wy-1463, reference compound]
PPRE ×3-TK-luc reporter activity ([2]; PPARα agonist treated for 6 hours vs DMSO, FIG. 9B): induced

CC(C)C[C@@H](C=O)NC(=O)[C@H](CC(C)C)NC(=O)[C@H](CC(C)C)NC(=O)OCc1ccccc1 [MG-132] (Cbz-Leu-Leu-Leu-aldehyde)
protein level of PGC-1β ([8]; 10 μM MG-132 for two hours, solvent-treated (DMSO-treated) skin fibroblasts): 1.6 folds | protein level of PGC-1β, additive effect of tamoxifen treatment and MG-132 ([8]; 10 μM MG-132 for two hours, tamoxifen-treated skin fibroblasts): 1.1 folds

O=C1C=CC(=O)c2c(O)cccc21 [compound 349]
number and size of mitochondria [6]: proliferation (increase in the number) of mitochondria or increase in size of mitochondria has been observed | inhibiting activity of the PGC-1β ubiquitination, concentration dependency [7]: in 10 μM is higher than that in 1 μM | polyubiquitination of PGC-1β [7]: suppressed | binding between synoviolin and PGC-1β [1, 9]: inhibition of the binding

CC1=CC(=O)c2c(O)cccc2C1=O [plumbagin, 2-methyl-5-hydroxy-1,4-naphthoquinone]
self-ubiquitination of synoviolin protein [3]: inhibit self-ubiquitination of synoviolin protein

O=C1CCC(=O)c2c(O)cccc21 [compound 355]
number and size of mitochondria [6]: proliferation (increase in the number) of mitochondria or increase in size of mitochondria has been observed | binding between synoviolin and PGC-1β [1, 9]: inhibition of the binding
